Experimental findings from patent US20240343707A1, “SUBSTITUTED PHENYL ETHYNYL PYRIMIDINES AS POTENT INHIBITORS OF ALPHAVIRUSES” (Southern Research Institute, priority 2023, published 2024) are described below.

Some results are limits rather than exact numbers.

What all share (type): cell-based
One data set can be described thus: in vitro. Conditions: human.
Data set [1] has as its system CHIKV. Kind of data set: microbe, parasite or virus in culture. Conditions: Chikungunya virus, read-out: CHIK EC50 (μM).
Another data set concerns VEEV (TC-83). Put plainly: microbe, parasite or virus in culture. Conditions: Venezuelan equine encephalitis virus, read-out: VEEV EC50 (μM).
The next data set has as its system VEEV. Put plainly: microbe, parasite or virus in culture. The settings on record: Venezuelan equine encephalitis virus, NHDF; for EC90: read-out: VEEV EC90 (μM); for log reduction at 10 µM: read-out: VEEV VTR (logs).
Data set [2] relates to CHIKV. Kind of data set: CHIKV virus titer reduction (VTR) assay in NHDF cells. Conditions: Chikungunya virus; for EC90: read-out: CHIKV EC90 (μM); for log reduction at 10 µM: read-out: CHIKV VTR (logs).

With `COc1cc(C#Cc2ncccn2)cc(C(=O)Nc2ccc3c(c2)CCC(=O)N3C)c1` [Compound 15, 3-methoxy-N-(1-methyl-2-oxo-3,4-dihydroquinolin-6-yl)-5-(2-pyrimidin-2-ylethynyl)benzamide], in “in vitro”, it took 26 µM to reach half-maximal cytotoxicity (CC50). Besides, the figures for the EC50 in the data set on CHIKV [1] and in the data set on VEEV (TC-83) were 0.2 µM and 0.33 µM, respectively.

For the compound `O=C1Cc2cc(NC(=O)c3cccc(C#Cc4ncccn4)c3)ccc2N1` [Compound 4, N-(2-oxoindolin-5-yl)-3-(2-pyrimidin-2-ylethynyl)benzamide], the 50% cytotoxic concentration (CC50) in the data set “in vitro” was over 40 µM. Further, the results for the EC90 with VEEV and with CHIKV [2] were 0.32 µM and 0.095 µM, respectively. The log reduction at 10 µM in the data set on VEEV was found to be 3.19; in the data set on CHIKV [2], 10. Also, the EC50 in the data set on CHIKV [1] amounted to 0.66 µM; in the data set with VEEV (TC-83), 2.11 µM.

With `CCOP(=O)(OCC)c1ccc(NC(=O)c2cccc(C#Cc3ncccn3)c2)cc1` [Compound 6, N-(4-diethoxyphosphorylphenyl)-3-(2-pyrimidin-2-ylethynyl)benzamide], the CC50 in the data set “in vitro” was over 40 µM. Further, the EC50 in the data set on CHIKV [1] worked out at 0.44 µM; with VEEV (TC-83), 0.43 µM.

In turn, `O=C(Nc1ccc2c(c1)CCCN2)c1cccc(C#Cc2ncccn2)c1` [Compound 12, 3-(2-pyrimidin-2-ylethynyl)-N-(1,2,3,4-tetrahydroquinolin-6-yl)benzamide] displayed a CC50 in the data set “in vitro” of 38.8 µM. Further, the EC90 in the data set on VEEV turned out to be 0.72 µM; in the data set with CHIKV [2] it was 0.74 µM. Also, the log reduction at 10 µM with VEEV worked out at 5.47; in the data set with CHIKV [2], 7.58. Moreover, the EC50 was determined as 1.02 µM in the data set with CHIKV [1] and 1.39 µM with VEEV (TC-83).

Take `O=C1CCc2cc(NC(=O)c3cccc(C#Cc4ncccn4)c3)ccc2N1` [Compound 1, N-(2-oxo-3,4-dihydro-1H-quinolin-6-yl)-3-(2-pyrimidin-2-ylethynyl)benzamide]: in the data set “in vitro”, the CC50 was over 40 µM. In addition, the results for the EC90 in the data set on VEEV and in the data set with CHIKV [2] were 0.11 µM and 0.18 µM, respectively. Also, the log reduction at 10 µM in the data set with VEEV was 7.85; in the data set on CHIKV [2] it was 3.15. The EC50 was 0.23 µM with CHIKV [1] and 1.6 µM with VEEV (TC-83).

On to `O=C(Nc1cccc(C#Cc2ncccn2)c1)c1nc2c(s1)CCCC2` [Compound 9, N-[3-(2-pyrimidin-2-ylethynyl)phenyl]-4,5,6,7-tetrahydro-1,3-benzothiazole-2-carboxamide], for which, in the data set “in vitro”, the CC50 was 9.59 µM. Further, the EC90 turned out to be 7.37 µM in the data set on VEEV and 3.9 µM with CHIKV [2]. The values for the log reduction at 10 µM in the data set on VEEV and with CHIKV [2] were 2.59 and 1.65, respectively. For the same compound, the EC50 in the data set on CHIKV [1] was 5.78 µM; in the data set on VEEV (TC-83) it was over 40 µM.

Regarding `O=C(Nc1ccc(N2CCCCC2=O)cc1)c1cccc(C#Cc2ncccn2)c1` [Compound 24, N-[4-(2-oxo-1-piperidyl)phenyl]-3-(2-pyrimidin-2-ylethynyl)benzamide], in the data set with VEEV, the EC90 was determined as 2.44 µM and the log reduction at 10 µM came out at 4.6. Besides, in the data set with CHIKV [2], the EC90 came out at 0.63 µM and the log reduction at 10 µM stood at 4.18.

`O=C(Nc1ccc2c(c1)CCCC2)c1cccc(C#Cc2ncccn2)c1` [Compound 22, 3-(2-pyrimidin-2-ylethynyl)-N-tetralin-6-yl-benzamide]: the CC50 in the data set “in vitro” was over 40 µM. For the same compound, the EC90 in the data set with VEEV and in the data set on CHIKV [2] was 0.7 µM each time. For the same compound, the values for the EC50 with CHIKV [1] and with VEEV (TC-83) were 0.83 µM and 1.26 µM, respectively.

Take `O=C(Nc1cccc(C#Cc2ncccn2)c1)c1ccc(N2CCCCC2=O)cc1` [Compound 21, 4-(2-oxo-1-piperidyl)-N-[3-(2-pyrimidin-2-ylethynyl)phenyl]benzamide]: in “in vitro”, the CC50 was over 40 µM. Also, the log reduction at 10 µM came to 0.72 in the data set on VEEV and 1.83 in the data set on CHIKV [2]. The EC50 in the data set on CHIKV [1] is over 40 µM; with VEEV (TC-83), 32.2 µM.

Take `CN1C(=O)CCc2cc(NC(=O)c3cccc(C#Cc4ncccn4)c3)ccc21` [Compound 3, N-(1-methyl-2-oxo-3,4-dihydroquinolin-6-yl)-3-(2-pyrimidin-2-ylethynyl)benzamide]: the CC50 in “in vitro” came out at 35.3 µM. For the same compound, the EC90 worked out at 0.33 µM with VEEV and 0.13 µM with CHIKV [2]. Further, the log reduction at 10 µM was 8.58 in the data set on VEEV and 8 with CHIKV [2]. Further, the EC50 in the data set with CHIKV [1] is 0.3 µM; with VEEV (TC-83), 0.77 µM.

`O=C1CCCc2cc(NC(=O)c3cccc(C#Cc4ncccn4)c3)ccc2N1` [Compound 2, N-(2-oxo-1,3,4,5-tetrahydro-1-benzazepin-7-yl)-3-(2-pyrimidin-2-ylethynyl)benzamide] returned a CC50 in the data set “in vitro” of over 40 µM. In addition, the figures for the EC90 with VEEV and with CHIKV [2] were 0.55 µM and 0.15 µM, respectively. Further, the log reduction at 10 µM in the data set with VEEV was found to be 7.77; in the data set on CHIKV [2] it was 7.7. For the same compound, the EC50 with CHIKV [1] worked out at 0.51 µM; in the data set with VEEV (TC-83), 2.27 µM.

In turn, `O=C1CCc2ccc(NC(=O)c3cccc(C#Cc4ncccn4)c3)cc2N1` [Compound 17, N-(2-oxo-3,4-dihydro-1H-quinolin-7-yl)-3-(2-pyrimidin-2-ylethynyl)benzamide] came in with a CC50 in “in vitro” of over 40 µM. Further, the EC90 with VEEV stood at 0.45 µM; with CHIKV [2], 0.61 µM. Further, the log reduction at 10 µM is 6.81 in the data set on VEEV and 6.94 with CHIKV [2]. In addition, the EC50 was 0.83 µM with CHIKV [1] and 2.18 µM with VEEV (TC-83).

In turn, `O=C(Nc1ccc2c(c1)CCCCC2)c1cccc(C#Cc2ncccn2)c1` [Compound 8, 3-(2-pyrimidin-2-ylethynyl)-N-(6,7,8,9-tetrahydro-5H-benzo[7]annulen-3-yl)benzamide] showed a CC50 in the data set “in vitro” of 6.97 µM. For the same compound, the concentration for an effect of 90% (EC90) in the data set on VEEV came to 2.43 µM; in the data set with CHIKV [2], 0.43 µM. In addition, the figures for the log reduction at 10 µM with VEEV and in the data set with CHIKV [2] were 7.97 and 6.89, respectively. Also, the EC50 with CHIKV [1] is 0.71 µM; with VEEV (TC-83) it was over 40 µM.

Turning to `O=C1CCc2cc(C(=O)Nc3cccc(C#Cc4ncccn4)c3)ccc2N1` [Compound 5, 2-oxo-N-[3-(2-pyrimidin-2-ylethynyl)phenyl]-3,4-dihydro-1H-quinoline-6-carboxamide], in the data set “in vitro”, the CC50 is over 40 µM. Further, the EC90 with VEEV stood at 1.15 µM; with CHIKV [2], 1.09 µM. For the same compound, the log reduction at 10 µM in the data set with VEEV is 6.43; in the data set on CHIKV [2] it was 2.72. Besides, the figures for the EC50 with CHIKV [1] and in the data set with VEEV (TC-83) were 3.31 µM and 3.98 µM, respectively.

Turning to `O=C1CCc2cc(NC(=O)c3cc(C#Cc4ncccn4)cc(OC(F)(F)F)c3)ccc2N1` [Compound 16, N-(2-oxo-3,4-dihydro-1H-quinolin-6-yl)-3-(2-pyrimidin-2-ylethynyl)-5-(trifluoromethoxy)benzamide], the CC50 in “in vitro” was over 40 µM. Besides, the EC50 was determined as 0.19 µM in the data set on CHIKV [1] and 0.16 µM with VEEV (TC-83).

In “in vitro”, `O=C(Nc1cccc(C#Cc2ncccn2)c1)c1cc(C2CC2)[nH]c(=O)c1` [Compound 18, 2-cyclopropyl-6-oxo-N-[3-(2-pyrimidin-2-ylethynyl)phenyl]-1H-pyridine-4-carboxamide] registered a CC50 of over 40 µM. Besides, in the data set with VEEV, the EC90 is 5.66 µM. Also, the log reduction at 10 µM in the data set with VEEV was determined as 2.43; in the data set with CHIKV [2], 0.62. Besides, the EC50 in the data set with CHIKV [1] was 28.1 µM; with VEEV (TC-83) it was 10.3 µM.

As for `O=C(NCc1ccc2c(c1)OC(F)(F)O2)c1cccc(C#Cc2ncccn2)c1` [Compound 7, N-[(2,2-difluoro-1,3-benzodioxol-5-yl)methyl]-3-(2-pyrimidin-2-ylethynyl)benzamide], in the data set “in vitro”, the CC50 is over 40 µM. Also, the log reduction at 10 µM in the data set on VEEV came to 3.88; in the data set on CHIKV [2] it was 4.43. Moreover, the EC50 is 4.32 µM with CHIKV [1] and over 40 µM with VEEV (TC-83).

In “in vitro”, `O=C(Nc1ccc(C(F)(F)F)cc1)c1cccc(C#Cc2ncccn2)c1` [Compound 23, 3-(2-pyrimidin-2-ylethynyl)-N-[4-(trifluoromethyl)phenyl]benzamide] yielded a CC50 of over 40 µM. For the same compound, the EC90 with VEEV was 0.82 µM; in the data set on CHIKV [2], 0.85 µM. The EC50 in the data set on CHIKV [1] was determined as 1.2 µM; in the data set with VEEV (TC-83), 0.71 µM.

Take `CC(C)(C)c1ccc(NC(=O)c2cccc(C#Cc3ncccn3)c2)cc1` [Compound 19, N-(4-tert-butylphenyl)-3-(2-pyrimidin-2-ylethynyl)benzamide]: in “in vitro”, the midpoint of cytotoxicity, the CC50, lay at 5.08 µM. Also, the EC90 was 0.3 µM with VEEV and 0.2 µM with CHIKV [2]. For the same compound, the log reduction at 10 µM came to 8.26 with VEEV and 7.59 with CHIKV [2]. Also, the values for the EC50 in the data set with CHIKV [1] and with VEEV (TC-83) were 1.04 µM and 0.93 µM, respectively.

Turning to `O=C1CC(Cc2ccc(NC(=O)c3cccc(C#Cc4ncccn4)c3)cc2)C(=O)N1` (centres unmarked) [Compound 13, N-[4-[(2,5-dioxopyrrolidin-3-yl)methyl]phenyl]-3-(2-pyrimidin-2-ylethynyl)benzamide], the CC50 in the data set “in vitro” was over 40 µM. In addition, the EC90 was 2.53 µM in the data set on VEEV and 0.16 µM with CHIKV [2]. The log reduction at 10 µM with VEEV came to 2.45; in the data set on CHIKV [2] it was 2.76. The values for the EC50 with CHIKV [1] and with VEEV (TC-83) were 2.8 µM and 7.19 µM, respectively.

Turning to `O=C1CCc2cc(S(=O)(=O)Nc3cccc(C#Cc4ncccn4)c3)ccc2N1` [Compound 10, 2-oxo-N-[3-(2-pyrimidin-2-ylethynyl)phenyl]-3,4-dihydro-1H-quinoline-6-sulfonamide], the CC50 in “in vitro” was 33.2 µM. Further, the log reduction at 10 µM with VEEV came to 0.81; in the data set on CHIKV [2] it was 0.08. For the same compound, the EC50 with CHIKV [1] and in the data set on VEEV (TC-83) was over 40 µM each time. Moreover, the EC90 in the data set on CHIKV [2] came out at 1.13 µM.

`COc1cc(C#Cc2ncccn2)cc(C(=O)Nc2ccc3c(c2)CCC(=O)N3)c1` [Compound 14, 3-methoxy-N-(2-oxo-3,4-dihydro-1H-quinolin-6-yl)-5-(2-pyrimidin-2-ylethynyl)benzamide] came in with a CC50 in the data set “in vitro” of over 40 µM. In addition, the EC50 was 0.16 µM in the data set with CHIKV [1] and 0.44 µM in the data set with VEEV (TC-83).
